For orientation: Dmax means the greatest extent of degradation seen. By DC50 is commonly meant the concentration giving 50% degradation.

Each structure is given as a SMILES string. Like-named read-outs stand apart in the source and are kept apart here.

Drawing on patent US12257247B2 (Monte Rosa Therapeutics AG, priority 2023, dated 2025), this text covers Dmax and DC50 for 26 molecules.

The target of this assay is T1, VAV1 (Homo sapiens, UniProt P15498+Q96SW2).
T1 construct: A heterozygous VAV1 C-terminal HiBiT knock-in pool was generated at Monte Rosa Therapeutics from a clonal Jurkat cell; endogenous in cells; host or cells: Jurkat clone stably expressing LgBiT, homozygous GSPT1-G575N; heterozygous VAV1-HiBiT knock-in pool
The experiment in a line: VAV1 degradation activity, VAV1-HiBiT knock-in Jurkat luminescence assay (Example A, Table 1). Particulars: VAV1-HiBiT knock-in Jurkat cells; for Dmax: Jurkat. It is filed as cell-based. The gist of the method:
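Luminescence was measured at 6 and 24 h after adding compound (10 μM stock) to VAV1-HiBiT knock-in Jurkat cells, which had been pre-incubated ~16 h at 37° C. in RPMI/10% FBS containing Endurazine. EC50 values came from control-normalised responses fitted to a 3-parameter logistic model with hillslope fixed at 1.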
Background: With HiBiT, luminescence reflects the tagged protein that the partner subunit can reach.

Setting [1] is: luminescence read at 6 and 24 hours, read-out: VAV1 Dmax %.
Setting [2] is: luminescence read at 6 and 24 hours, read-out: VAV1 Dmax %, class.
Where [3] appears, read: luminescence read at 6 and 24 hours, read-out: VAV1 DC50.
Where [4] appears, read: luminescence read at 6 and 24 hours, read-out: VAV1 DC50 (nM), class.
The mark [5] stands for this setting: luminescence read at 6 and 24 hours after compound addition, read-out: VAV1 Dmax %.
Setting [6] is: luminescence read at 6 and 24 hours after compound addition, read-out: VAV1 Dmax %, class.
The mark [7] stands for this setting: luminescence read at 6 and 24 hours after compound addition, read-out: VAV1 DC50.
[8] abbreviates: luminescence read at 6 and 24 hours after compound addition, read-out: VAV1 DC50 (nM), class.

As for `O=C1CN(CCOc2ccc(-c3cccc(C4CCC(=O)NC4=O)c3Cl)cc2)CCN1` (centres unmarked) [Compound 121], the Dmax by setting is: under setting [1], 94%; under setting [2], above 90%. In addition, the DC50 under setting [3] was determined as 11 nM and the DC50 under setting [4] was at most 100 nM.
On the same counts, the results for `CN1CC(=O)N(Cc2ccc(-c3cccc(C4CCC(=O)NC4=O)c3Cl)cc2)CC1(C)C` (centres unmarked) [Compound 257] are 94.2%, above 90%, 9.66 nM and at most 100 nM.
On the same counts, the results for `Cc1cccc(=O)n1-c1ccc(-c2cccc(C3CCC(=O)NC3=O)c2Cl)cc1` (centres unmarked) [Compound 214, 3-(2-chloro-4′-(6-methyl-2-oxopyridin-1(2H)-yl)-[1,1′-biphenyl]-3-yl)piperidine-2,6-dione] are 97.5%, above 90%, 3.61 nM and at most 100 nM.
On the same counts, the results for `O=C1CCC(c2cccc(-c3ccc(N4CCn5nccc5C4=O)cc3)c2Cl)C(=O)N1` (centres unmarked) [Compound 321] are 88.1%, 60 to 90%, 22.5 nM and at most 100 nM.
In the case of `Nc1ccc(-c2cccc(C3CCC(=O)NC3=O)c2Cl)cc1Cl` (centres unmarked) [Compound 105], the Dmax by setting is: under setting [1], 97.7%; under setting [2], above 90%. Further, the half-maximal degradation concentration (DC50) under setting [3] came to 18.1 nM and the 50% degradation concentration (DC50) under setting [4] is at most 100 nM.
On the same counts, the results for `Cn1ccc(COc2ccc(-c3c(C#N)ccc(C4CCC(=O)NC4=O)c3Cl)cc2)n1` (centres unmarked) [Compound 179] are 32.8%, below 60%, at least 10000 nM and above 1000 nM.
On the same counts, the results for `O=C1CCC(c2cccc(-c3ccc(N4CCOCC4)cc3)c2Cl)C(=O)N1` (centres unmarked) [Compound 338, 3-(2-chloro-4′-morpholino-[1,1′-biphenyl]-3-yl)piperidine-2,6-dione] are 57.8%, below 60%, 2170 nM and above 1000 nM.
Taken in the same sequence, the figures for `Cn1ccc(C(F)(F)F)c(-c2ccc(-c3cccc(C4CCC(=O)NC4=O)c3Cl)cc2)c1=O` (centres unmarked) [Compound 428, 3-(2-chloro-4′-(1-methyl-2-oxo-4-(trifluoromethyl)-1,2-dihydropyridin-3-yl)-[1,1′-biphenyl]-3-yl)piperidine-2,6-dione] were 98.8%, above 90%, 2.25 nM and at most 100 nM.
In the case of `O=C1CCC(c2cccc(-c3ccc(N4CCCCS4(=O)=O)cc3)c2Cl)C(=O)N1` (centres unmarked) [Compound 220], the maximal degradation (Dmax) was 77.2% under setting [1] and 60 to 90% under setting [2]. Moreover, the 50% degradation concentration (DC50) under setting [3] was 104 nM and the DC50 under setting [4] is 100 to 1000 nM.
Taken in the same sequence, the figures for `O=C1CCC(c2cccc(-c3ccc(N4CCCCC4=O)nc3)c2Cl)C(=O)N1` (centres unmarked) [Compound 450, 3-(2-chloro-3-(6-(2-oxopiperidin-1-yl)pyridin-3-yl)phenyl)piperidine-2,6-dione] were 75.9%, 60 to 90%, 173 nM and 100 to 1000 nM.
Taken in the same sequence, the figures for `O=C1CCC(c2cccc(-c3ccc(OCc4cc[nH]n4)cc3)c2Cl)C(=O)N1` (centres unmarked) [Compound 203, 3-(4′-((1H-pyrazol-3-yl)methoxy)-2-chloro-[1,1′-biphenyl]-3-yl)piperidine-2,6-dione] were 94.6%, above 90%, 29.3 nM and at most 100 nM.
As for `O=C1CCC(c2cccc(-c3ccc(Cc4cccs4)cc3)c2Cl)C(=O)N1` (centres unmarked) [Compound 377, 3-(2-chloro-4′-(thiophen-2-ylmethyl)-[1,1′-biphenyl]-3-yl)piperidine-2,6-dione], the greatest degradation seen (Dmax) under setting [1] came out at 98.8% and the Dmax under setting [2] is above 90%. The DC50 was 17.2 nM under setting [3] and at most 100 nM under setting [4].
Taken in the same sequence, the figures for `O=C1CCC(c2cccc(-c3ccc(Cn4ccccc4=O)cc3)c2Cl)C(=O)N1` (centres unmarked) [Compound 156, 3-(2-chloro-4′-((2-oxopyridin-1(2H)-yl)methyl)-[1,1′-biphenyl]-3-yl)piperidine-2,6-dione] were 92%, above 90%, 26 nM and at most 100 nM.
For `O=C1CCC(c2cccc(-c3ccc(-n4ccc(F)cc4=O)cc3)c2Cl)C(=O)N1` (centres unmarked) [Compound 245, 3-[2-chloro-3-[4-(4-fluoro-2-oxo-1-pyridyl)phenyl]phenyl]piperidine-2,6-dione], the Dmax by setting is: under setting [1], 95.2%; under setting [2], above 90%. Further, the half-maximal degradation concentration (DC50) runs as follows: under setting [3], 17.5 nM; under setting [4], at most 100 nM.
On the same counts, the results for `O=C1CCC(c2cccc(-c3ccc(Cn4ccnc4)cc3)c2Cl)C(=O)N1` (centres unmarked) [Compound 140, 3-(4′-((1H-imidazol-1-yl)methyl)-2-chloro-[1,1′-biphenyl]-3-yl)piperidine-2,6-dione] are 83.8%, 60 to 90%, 52.2 nM and at most 100 nM.
Taken in the same sequence, the figures for `O=C1CCC(c2cccc(-c3ccc(CN4CCn5nccc5C4=O)cc3)c2Cl)C(=O)N1` (centres unmarked) [Compound 275] were 87.6%, 60 to 90%, 37.2 nM and at most 100 nM.
Taken in the same sequence, the figures for `O=C1CCC(c2cccc(-c3ccc(N4Cc5ncccc5C4=O)cc3)c2Cl)C(=O)N1` (centres unmarked) [Compound 466, 3-(2-chloro-4′-(5-oxo-5,7-dihydro-6H-pyrrolo[3,4-b]pyridin-6-yl)-[1,1′-biphenyl]-3-yl)piperidine-2,6-dione] were 35.2%, below 60%, at least 10000 nM and above 1000 nM.
For the molecule `O=C1CCC(c2cccc(-c3ccc(Cc4cocn4)cc3)c2Cl)C(=O)N1` (centres unmarked) [Compound 442, 3-(2-chloro-4′-(oxazol-4-ylmethyl)-[1,1′-biphenyl]-3-yl)piperidine-2,6-dione], the Dmax was 95.8% under setting [1] and above 90% under setting [2]. Moreover, the half-maximal degradation concentration (DC50) reads like this: under setting [3], 34.5 nM; under setting [4], at most 100 nM.
Taken in the same sequence, the figures for `Cn1ccc(COc2ccc(-c3ccc(Cl)c(C4CCC(=O)NC4=O)c3Cl)cc2)n1` (centres unmarked) [Compound 146, 3-(2,4-dichloro-4′-((1-methyl-1H-pyrazol-3-yl)methoxy)-[1,1′-biphenyl]-3-yl)piperidine-2,6-dione] were 81.5%, 60 to 90%, 8400 nM and above 1000 nM.
On the same counts, the results for `O=C1CCC(c2cccc(-c3ccc(N4C(=O)CCn5nccc54)cc3)c2Cl)C(=O)N1` (centres unmarked) [Compound 330] are 72.1%, 60 to 90%, 130 nM and 100 to 1000 nM.
Consider `CC1(C)Cc2cc(-c3cccc(C4CCC(=O)NC4=O)c3Cl)ccc2N1` (centres unmarked) [Compound 497, 3-(2-chloro-3-(2,2-dimethylindolin-5-yl)phenyl)piperidine-2,6-dione], for which the greatest degradation seen (Dmax) under setting [5] is 95.8% and the Dmax under setting [6] was above 90%. The half-maximal degradation concentration (DC50) under setting [7] was found to be 18 nM and the half-maximal degradation concentration (DC50) under setting [8] was at most 100 nM.
For `CN1CCCN(Cc2ccc(-c3cccc(C4CCC(=O)NC4=O)c3Cl)cc2)C1=O` (centres unmarked) [Compound 424, 3-(2-chloro-4′-((3-methyl-2-oxotetrahydropyrimidin-1(2H)-yl)methyl)-[1,1′-biphenyl]-3-yl)piperidine-2,6-dione], the Dmax by setting is: under setting [1], 95.3%; under setting [2], above 90%. Besides, the half-maximal degradation concentration (DC50) runs as follows: under setting [3], 9.94 nM; under setting [4], at most 100 nM.
Take `CN1CCc2cc(-c3cccc(C4CCC(=O)NC4=O)c3Cl)ccc21` (centres unmarked) [Compound 488, 3-(2-chloro-3-(1-methylindolin-5-yl)phenyl)piperidine-2,6-dione]: the maximal degradation (Dmax) under setting [5] stood at 91% and the Dmax under setting [6] was above 90%. The DC50 is 17.2 nM under setting [7] and at most 100 nM under setting [8].
Consider `O=C1CCC(c2cccc(-c3ccc(CN4CCc5ocnc5C4=O)cc3)c2Cl)C(=O)N1` (centres unmarked) [Compound 252], for which the greatest degradation seen (Dmax) was 82.8% under setting [1] and 60 to 90% under setting [2]. The 50% degradation concentration (DC50) by setting is: under setting [3], 54.8 nM; under setting [4], at most 100 nM.
Take `O=C1CCC(c2cccc(-c3ccc(-c4cccc5ocnc45)cc3)c2Cl)C(=O)N1` (centres unmarked) [Compound 460, 3-(4′-(benzo[d]oxazol-4-yl)-2-chloro-[1,1′-biphenyl]-3-yl)piperidine-2,6-dione]: the greatest degradation seen (Dmax) under setting [1] was found to be 89.9% and the maximal degradation (Dmax) under setting [2] lay in the range of 60 to 90%. Besides, the DC50 runs as follows: under setting [3], 277 nM; under setting [4], 100 to 1000 nM.
For `Cn1ccc(CN2C(=O)CCc3cc(-c4cccc(C5CCC(=O)NC5=O)c4Cl)ccc32)n1` (centres unmarked) [Compound 501, 3-(2-chloro-3-(1-((1-methyl-1H-pyrazol-3-yl)methyl)-2-oxo-1,2,3,4-tetrahydroquinolin-6-yl)phenyl)piperidine-2,6-dione], the Dmax was 97.7% under setting [5] and above 90% under setting [6]. The DC50 by setting is: under setting [7], 8.19 nM; under setting [8], at most 100 nM.
